Results published in patent US4520031A, “Method for reducing toxic effects of methyl-glyoxal bis-guanylhydrazone” (priority 1982, dated 1985).
Read-outs that look alike come from different tables or passages of the source.

Tests used:
[1] = cited from earlier work; for Penile inflammation: % of male population
Leukemia = test: Response to weekly MGBG, leukemia; format: in vivo, human; settings: 1 mg/m^2 weekly for three weeks; 1 evaluable patient
Procedure: **Patient received 1 mg/m^2 weekly for three weeks

polyamine synthesis = settings: in vitro; cited from earlier work
Prostate = test: Response to weekly MGBG, prostate; format: in vivo, human; settings: 6 evaluable patients
Procedure: (§1) During the course of the clinical experiments, MGBG was administered to patients in approximately weekly doses ranging from 250 to 1000 mg per square meter.
(§2) Pre-treatment minimum evaluation included chest roentgenogram, liver and renal function tests, complete blood count with differential and platelet count and serum glucose. Pre-treatment performance status was recorded for each patient in accordance with SWOG criteria.
(§3) This intravenous infusion is administered to the patient over a period of time not less than 30 minutes. Accordingly, an approximation of the patient's surface area in square meters is calculated using a height and weight to surface area nomogram (listed in Documenta Geigy, Scientific Tables (1970) p. 537) and this factor is applied in determining the appropriate amount of MGBG salt to be added to the infusion solution. […] In the absence of toxicity, subsequent doses of MGBG are increased by 100 mg/m^2 over the previous week's dose. If patients experience moderate or severe reversible toxicity, the dose is reduced by 100 mg/m^2 relative to the previous week's dose. No change in dosage strength is made for mild toxicity.

DNA synthesis = settings: reversed by exogenous spermidine; cited from earlier work
[2] = some peculiar to certain animal species; cited from earlier work
Hepatoma = test: Response to weekly MGBG, hepatoma; format: in vivo, human; settings: 1 evaluable patient
Procedure: as §1, §2, §3

Head & Neck = test: Response to weekly MGBG, head & neck; format: in vivo, human; settings: 2 evaluable patients
Procedure: as §1, §2, §3

[3] = system: acute myelocytic leukemia; settings: cited from earlier work
[4] = cited from earlier work
adenocarcinoma-755 = settings: Freelander and French; cited from earlier work
Oat Cell = test: Response to weekly MGBG, oat cell; format: in vivo, human; settings: 1 evaluable patient
Procedure: as §1, §2, §3

Colon = test: Response to weekly MGBG, colon; format: in vivo, human; settings: 14 evaluable patients
Procedure: as §1, §2, §3

[5] = over three weeks, 30240 min; cited from earlier work
Melanoma = test: Response to weekly MGBG, melanoma; format: in vivo, human; settings: 1 evaluable patient
Procedure: as §1, §2, §3

[6] = Group I, less than 100 mg/m^2/day
[7] = Group II, 100 to 125 mg/m^2/day
[8] = Group III, 126 to 160 mg/m^2/day

For `CC(C=NNC(=N)N)=NNC(=N)N` [MGBG, 1,1'-[(methylethanediylidene)dinitrilo] diguanidine], the “Acroerythema (number of patients)” value [1, 6] is given as 0 patients, the Diarrhea [1, 6] is given as 40% and the “Diarrhea (number of patients)” value [1, 6] is given as 4 patients. For the same molecule, the Died during treatment [1, 6] was 42%, the “Died during treatment (number of patients)” value [1, 6] was 5 patients and the “Erythema Nodosum” value [1, 6] was 10%. The “Erythema Nodosum (number of patients)” value [1, 6] was 1 patients, the Mucosal involvement [1, 6] was 80% and the “Mucosal involvement (number of patients)” value [1, 6] was 8 patients. For the same molecule, the “Penile inflammation (number of patients)” value [1, 6] was 0 patients, the Vasculitis [1, 6] was 40% and the “Vasculitis (number of patients)” value [1, 6] was 4 patients. The “Weight Loss (Median %)” value [1, 6] was 0%, the Penile inflammation [1, 7] was 25% and the Acroerythema [1, 7] was 17%. For the same molecule, the “Acroerythema (number of patients)” value [1, 7] was 4 patients, the Diarrhea [1, 7] was 41% and the “Diarrhea (number of patients)” value [1, 7] was 6 patients. For the same molecule, the Died during treatment [1, 7] was 62%, the “Died during treatment (number of patients)” value [1, 7] was 10 patients and the “Erythema Nodosum” value [1, 7] was 9%. For the same molecule, the “Erythema Nodosum (number of patients)” value [1, 7] was 2 patients, the Mucosal involvement [1, 7] was 98% and the “Mucosal involvement (number of patients)” value [1, 7] was 15 patients. For the same molecule, the “Penile inflammation (number of patients)” value [1, 7] was 3 patients, the Vasculitis [1, 7] was 25% and the “Vasculitis (number of patients)” value [1, 7] was 5 patients. The “Weight Loss (Median %)” value [1, 7] was 6%, the Penile inflammation [1, 8] was 23% and the Acroerythema [1, 8] was 17%. The “Acroerythema (number of patients)” value [1, 8] was 6 patients, the Diarrhea [1, 8] was 42% and the “Diarrhea (number of patients)” value [1, 8] was 15 patients. For the same molecule, the Died during treatment [1, 8] was 30%, the “Died during treatment (number of patients)” value [1, 8] was 11 patients and the “Erythema Nodosum” value [1, 8] was 12%. The “Erythema Nodosum (number of patients)” value [1, 8] was 3 patients, the Mucosal involvement [1, 8] was 91% and the “Mucosal involvement (number of patients)” value [1, 8] was 31 patients. The “Penile inflammation (number of patients)” value [1, 8] was 4 patients, the Vasculitis [1, 8] was 25% and the “Vasculitis (number of patients)” value [1, 8] was 8 patients. For the same molecule, the “Weight Loss (Median %)” value [1, 8] was 10%, the Acroerythema ([1]; Group IV, over 160 mg/m^2/day) was 20% and the “Acroerythema (number of patients)” value ([1]; Group IV, over 160 mg/m^2/day) was 2 patients. For the same molecule, the Diarrhea ([1]; Group IV, over 160 mg/m^2/day) was 20%, the “Diarrhea (number of patients)” value ([1]; Group IV, over 160 mg/m^2/day) was 2 patients and the Died during treatment ([1]; Group IV, over 160 mg/m^2/day) was 83%. For the same molecule, the “Died during treatment (number of patients)” value ([1]; Group IV, over 160 mg/m^2/day) was 10 patients, the “Erythema Nodosum (number of patients)” value ([1]; Group IV, over 160 mg/m^2/day) was 0 patients and the Mucosal involvement ([1]; Group IV, over 160 mg/m^2/day) was 100%. The “Mucosal involvement (number of patients)” value ([1]; Group IV, over 160 mg/m^2/day) was 10 patients, the “Penile inflammation (number of patients)” value ([1]; Group IV, over 160 mg/m^2/day) was 0 patients and the Vasculitis ([1]; Group IV, over 160 mg/m^2/day) was 20%. For the same molecule, the “Vasculitis (number of patients)” value ([1]; Group IV, over 160 mg/m^2/day) was 2 patients, the “Weight Loss (Median %)” value ([1]; Group IV, over 160 mg/m^2/day) was 5% and the “incidence of toxicity under other schedules” value ([1]; continuous 24-hour infusion, very high initial dose then lower maintenance doses, versus daily dosing) was “neither of these regimens altered the incidence of associated toxicity”. The “IMP (Improvement noted)” value (Leukemia) was 1, the “intermediate concentrations acting selectively on all polyamine synthesis” value (polyamine synthesis) was 0.6 to 2.4 µg/mL and the “IMP (Improvement noted)” value (Prostate) was 1. The “No Response” value (Prostate) was 5, the “MGBG-mediated depression of DNA synthesis, associated changes” value (DNA synthesis) was “spermidine depletion and putrescine accumulation” and the toxicological effects observed [2] was “gastrointestinal toxicity, delayed and fatal hypoglycemia, hepatic and renal damage, bone marrow depression, diarrhea and phlebitis”. The “No Response” value (Hepatoma) was 1, the “No Response” value (Head & Neck) was 2 and the “remission rate (complete remissions)” value ([3]; average daily parenteral dose of 126 to 160 mg/m^2, Levin et al.) was 45%. The “activity in acute myelocytic leukemia” value ([3]; daily dosing schedule) was “major activity”, the “median increase in survival” value ([3]; from 2.5 months, compared to patients with myeloblastic leukemia treated with 6-mercaptopurine) was 6.5 months and the “Days to first Toxicity” value ([4]; patient 1, 230 mg/m^2/day) was 16 days. The Response ([4]; patient 1, 230 mg/m^2/day) was “None”, the “Days to first Toxicity” value ([4]; patient 2, 340 mg/m^2/day) was 7 days and the Response ([4]; patient 2, 340 mg/m^2/day) was “None”. The “Days to first Toxicity” value ([4]; patient 3, 256 mg/m^2/day) was 9 days, the Response ([4]; patient 3, 256 mg/m^2/day) was “Partial” and the “Days to first Toxicity” value ([4]; patient 4, 264 mg/m^2/day) was 7 days. For the same molecule, the Response ([4]; patient 4, 264 mg/m^2/day) was “Complete”, the “Days to first Toxicity” value ([4]; patient 5, 252 mg/m^2/day) was 10 days and the Response ([4]; patient 5, 252 mg/m^2/day) was “Complete”. For the same molecule, the “Days to first Toxicity” value ([4]; patient 6, 156 mg/m^2/day) was 10 days, the Response ([4]; patient 6, 156 mg/m^2/day) was “Complete” and the “Days to first Toxicity” value ([4]; patient 7, 194 mg/m^2/day) was 6 days. The Response ([4]; patient 7, 194 mg/m^2/day) was “Complete”, the “Days to first Toxicity” value ([4]; patient 8, 194 mg/m^2/day) was 7 days and the Response ([4]; patient 8, 194 mg/m^2/day) was “Complete”. For the same molecule, the “Days to first Toxicity” value ([4]; patient 9, 150 mg/m^2/day) was 23 days, the Response ([4]; patient 9, 150 mg/m^2/day) was “Partial” and the “Toxic Manifestation” value ([4]; patient 9, 150 mg/m^2/day) was “None”. The “Days to first Toxicity” value ([4]; patient 10, 150 mg/m^2/day) was 24 days, the Response ([4]; patient 10, 150 mg/m^2/day) was “Complete” and the “Toxic Manifestation” value ([4]; patient 10, 150 mg/m^2/day) was “None”. The “Days to first Toxicity” value ([4]; patient 11, 150 mg/m^2/day) was 15 days, the Response ([4]; patient 11, 150 mg/m^2/day) was “Complete” and the “Toxic Manifestation” value ([4]; patient 11, 150 mg/m^2/day) was “None”. The “Days to first Toxicity” value ([4]; patient 12, 150 mg/m^2/day) was 13 days, the Response ([4]; patient 12, 150 mg/m^2/day) was “Complete” and the “Days to first Toxicity” value ([4]; patient 13, 150 mg/m^2/day) was 13 days. The Response ([4]; patient 13, 150 mg/m^2/day) was “Complete”, the “Toxic Manifestation” value ([4]; patient 13, 150 mg/m^2/day) was “None” and the antitumor activity (adenocarcinoma-755) was “antitumor activity”. The “IMP (Improvement noted)” value (Oat Cell) was 1, the “CR + PR” value (Colon) was 3 and the “No Response” value (Colon) was 11. For the same molecule, the “PR (Partial response)” value (Colon) was 3, the “administered intravenous dose excreted in the feces” value [5] was “less than 20%” and the “administered intravenous dose excreted in the urine” value [5] was 50%. The “IMP (Improvement noted)” value (Melanoma) was 1.
